Assay results reported in ChEMBL document CHEMBL1201862, “PubChem BioAssay data set” (2004).
Counter-ions that a name gives are not always drawn. Calls of active or inactive are those of the source.

How the values were obtained:
[1] = biological target: Bcl-2-like protein 10 (Homo sapiens, UniProt Q9HD36); test: displacers of TR3 peptide from Bcl-B, primary screen, selectivity assay for Bfl-1 inhibitor project, biochemical, fluorescence polarization, FITC-TR3 peptide (AID 748);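 also: fluorescence polarization from a fluorescein-labelled TR3 peptide binding purified Bcl-B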
[2] = biological target: Wee1-like protein kinase (Homo sapiens, UniProt P30291); test: G2/M cell cycle arrest in HeLa, late-stage follow-up, mechanism study for Wee1 degradation inhibitor project, FACS, panel member Wee1 Degradation (AID 2088)
[3] = biological target: G2/mitotic-specific cyclin-B1 (Homo sapiens, UniProt P14635); test: G2/M cell cycle arrest in HeLa, late-stage follow-up, mechanism study for Wee1 degradation inhibitor project, FACS, panel member Cyclin B Degradation (AID 2088)
[4] = cells; format: functional, cell-based
[5] = cytotoxicity in HEK-293T cells, dose response, cytotoxicity control for BCR NF-kB inhibitor project, luminescence, B-cell screen hits (AID 489021); format: functional, cell-based;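 also: HEK-293T cells carrying an NF-kB luciferase reporter; cells exposed to compound for about 14 hours before viability readout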
[6] = cytotoxicity in KRAS-transformed pancreatic duct cells, primary screen, cell-based, fluorescence, HTS (AID 431); format: functional; conditions: Homo sapiens;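 also: cell line used: HPDE-C7K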
[7] = cytotoxicity in HPDE-C7 cells, cell-based, fluorescence, HTS (AID 430); format: functional; conditions: Homo sapiens
[8] = cells; format: functional, cell-based; remark: listed apart in the source
[9] = biological target: T1, Hexokinase HKDC1 (Homo sapiens, UniProt Q2TB90); test: HKDC1 hexokinase inhibitors, dose response, biochemical, W721R variant (AID 504729); format: functional
T1 sequence (Q2TB90 whole entry): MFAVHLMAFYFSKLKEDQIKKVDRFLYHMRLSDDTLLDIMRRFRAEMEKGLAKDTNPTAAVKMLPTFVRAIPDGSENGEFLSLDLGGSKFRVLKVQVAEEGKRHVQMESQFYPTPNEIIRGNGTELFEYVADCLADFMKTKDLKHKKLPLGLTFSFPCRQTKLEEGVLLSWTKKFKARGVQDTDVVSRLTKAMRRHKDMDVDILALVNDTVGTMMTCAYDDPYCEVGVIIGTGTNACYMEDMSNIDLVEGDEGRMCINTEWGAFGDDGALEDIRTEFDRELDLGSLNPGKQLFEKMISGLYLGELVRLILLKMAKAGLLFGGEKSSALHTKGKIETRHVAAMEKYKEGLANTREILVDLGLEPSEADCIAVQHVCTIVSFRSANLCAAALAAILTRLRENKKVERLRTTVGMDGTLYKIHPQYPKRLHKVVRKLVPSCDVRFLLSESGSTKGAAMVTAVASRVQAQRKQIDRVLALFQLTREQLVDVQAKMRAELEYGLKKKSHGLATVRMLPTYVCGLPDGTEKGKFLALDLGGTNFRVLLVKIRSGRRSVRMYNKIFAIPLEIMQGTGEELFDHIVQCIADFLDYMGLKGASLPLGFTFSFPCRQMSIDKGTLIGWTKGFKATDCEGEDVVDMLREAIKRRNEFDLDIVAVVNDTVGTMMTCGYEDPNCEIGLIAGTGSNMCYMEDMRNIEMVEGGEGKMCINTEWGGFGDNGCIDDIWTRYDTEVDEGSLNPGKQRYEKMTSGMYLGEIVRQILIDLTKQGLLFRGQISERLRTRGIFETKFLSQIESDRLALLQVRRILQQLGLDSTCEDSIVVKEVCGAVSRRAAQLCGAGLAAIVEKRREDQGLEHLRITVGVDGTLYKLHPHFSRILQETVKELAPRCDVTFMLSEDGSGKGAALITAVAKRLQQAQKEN

[10] = biological target: T2, Endoribonuclease toxin MazF (Escherichia coli K-12, UniProt P0AE70); test: fluorescent RNA oligo signal without MazF, dose response, counter-screen for MazEF activator project, biochemical, fluorescence, single-stranded RNase substrate (AID 588502); format: functional
T2 sequence (P0AE70 whole entry): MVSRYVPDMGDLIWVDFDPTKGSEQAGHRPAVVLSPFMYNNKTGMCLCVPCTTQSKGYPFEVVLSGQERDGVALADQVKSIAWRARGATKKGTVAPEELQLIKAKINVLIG

[11] = biological target: T3, Voltage-dependent T-type calcium channel subunit alpha-1H (Homo sapiens, UniProt O95180); test: Inhibitors of T-Type Calcium Channels. [Related pubchem assays (depositor defined):AID449739, AID463087, AID489005, AID493041, AID504579, AID504584, AID504619, AID504628]; format: functional
[12] = biological target: T2, Endoribonuclease toxin MazF; test: MazF toxin RNase activators, dose response, biochemical, fluorescence, single-stranded RNA substrate, uHTS hits (AID 588481); format: functional
[13] = biological target: T3, Voltage-dependent T-type calcium channel subunit alpha-1H; format: functional
[14] = biological target: Female germline-specific tumor suppressor gld-1 (Caenorhabditis elegans, UniProt Q17339); test: inhibitors of GLD-1 binding to TGE RNA, dose response, biochemical, fluorescence polarization, C. elegans (AID 2802);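 also: fluorescence polarization of labeled TGE RNA bound by purified gld-1 protein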
[15] = biological target: Protein Rev (Human immunodeficiency virus type 1 group M subtype B (isolate HXB2)(HIV-1), UniProt P04618); test: inhibitors of Rev binding to RRE RNA, dose response, biochemical, fluorescence polarization, HIV-1 (AID 434976); parameters: species or system Human immunodeficiency virus 1
[16] = biological target: Dual specificity protein phosphatase 3 (Homo sapiens, UniProt P51452); test: VHR1 inhibitor Ki determination, SAR follow-up, biochemical, colorimetric (AID 2004)
[17] = biological target: NACHT, LRR and PYD domains-containing protein 3 (Homo sapiens, UniProt Q96P20); test: NALP3 inhibitors in yeast, dose response, luminescent (AID 488799); format: functional
[18] = biological target: T4, Fatty acid synthase (Homo sapiens, UniProt P49327); test: FAS thioesterase domain inhibitors, dose response, biochemical, kinetic fluorescence intensity (AID 624326); format: functional;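 also: rate of fluorescence rise from hydrolysis of a fluorogenic O-methyl fluorescein ester substrate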
[19] = biological target: X-box-binding protein 1 (Homo sapiens, UniProt P17861); format: functional, Cricetulus griseus;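 also: confirmatory dose-response counter-screen serving a CHOP assay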
[20] = biological target: T4, Fatty acid synthase; test: FAS thioesterase domain inhibitors, dose response, biochemical, endpoint fluorescence intensity, uHTS hits (AID 624327); format: functional;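 also: fluorescence from hydrolysis of an O-methyl fluorescein acyl ester substrate by the enzyme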
[21] = biological target: T5, Cytochrome P450 1A2 (Homo sapiens, UniProt P05177);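 also: PubChem cytochrome P450 panel assay, CYP1A2 panel member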
T5 sequence (P05177 whole entry): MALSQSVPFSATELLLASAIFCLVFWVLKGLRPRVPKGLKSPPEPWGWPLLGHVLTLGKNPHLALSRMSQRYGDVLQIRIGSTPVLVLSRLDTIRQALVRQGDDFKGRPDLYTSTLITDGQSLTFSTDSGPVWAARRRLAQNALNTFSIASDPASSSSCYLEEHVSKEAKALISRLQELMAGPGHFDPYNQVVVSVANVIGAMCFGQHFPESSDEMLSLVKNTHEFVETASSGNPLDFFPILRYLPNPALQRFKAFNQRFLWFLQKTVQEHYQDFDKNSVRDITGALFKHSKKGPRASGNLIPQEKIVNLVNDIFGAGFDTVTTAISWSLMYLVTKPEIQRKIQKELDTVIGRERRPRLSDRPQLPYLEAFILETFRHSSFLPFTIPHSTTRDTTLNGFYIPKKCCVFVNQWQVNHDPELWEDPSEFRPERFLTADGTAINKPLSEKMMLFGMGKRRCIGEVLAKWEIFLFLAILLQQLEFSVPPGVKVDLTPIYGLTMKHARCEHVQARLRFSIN

[22] = biological target: Cyclin-dependent kinase 5/CDK5 activator 1 (Homo sapiens, UniProt Q00535); test: CDK5/p35 kinase inhibitors, dose response, biochemical, cherry-picked samples, set 2 (AID 504545)
[23] = biological target: Dual specificity tyrosine-phosphorylation-regulated kinase 1A (Rattus norvegicus, UniProt Q63470); format: biochemical, Homo sapiens
[24] = biological target: T6, Long-chain-fatty-acid--AMP ligase FadD28 (Mycobacterium tuberculosis, UniProt P9WQ59); test: Fluorescence polarization aasay to screen for inhibitors that compete for the binding of FadD28 to a bisubstrate Measured in Biochemical System Using Plate Reader - 2147-01_Inhibitor_Dose_CherryPick_Activity.; format: functional, Mycobacterium tuberculosis H37Rv
T6 sequence (P9WQ59 whole entry): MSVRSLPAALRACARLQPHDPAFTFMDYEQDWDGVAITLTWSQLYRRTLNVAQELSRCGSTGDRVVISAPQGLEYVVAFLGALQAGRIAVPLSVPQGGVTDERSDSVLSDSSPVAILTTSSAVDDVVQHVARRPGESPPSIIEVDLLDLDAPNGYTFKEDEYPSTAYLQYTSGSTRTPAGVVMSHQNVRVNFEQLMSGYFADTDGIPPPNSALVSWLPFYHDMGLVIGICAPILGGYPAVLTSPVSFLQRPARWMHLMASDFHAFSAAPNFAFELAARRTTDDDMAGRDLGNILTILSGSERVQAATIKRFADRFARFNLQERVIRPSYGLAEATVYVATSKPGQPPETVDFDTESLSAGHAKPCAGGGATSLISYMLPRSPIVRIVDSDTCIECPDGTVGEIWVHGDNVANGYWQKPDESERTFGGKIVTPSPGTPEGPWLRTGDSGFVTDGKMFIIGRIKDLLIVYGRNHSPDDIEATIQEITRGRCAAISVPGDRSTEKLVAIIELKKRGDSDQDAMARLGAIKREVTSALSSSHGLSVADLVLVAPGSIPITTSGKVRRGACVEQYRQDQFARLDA

[25] = biological target: Large T antigen (Simian virus 40, UniProt P03070); format: functional, Betapolyomavirus macacae;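 also: Confirmatory-stage PubChem screen for compounds that inhibit SV40 T antigen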
[26] = biological target: Cytochrome P450 3A4 (Homo sapiens, UniProt P08684); conditions: Potency;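 also: confirmatory qHTS run detecting inhibitors and substrates of CYP3A4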
[27] = biological target: T7, Small ubiquitin-related modifier 1 (Homo sapiens, UniProt P63165); test: inhibitors of SUMO1 peptide binding, dose response, biochemical, fluorescence polarization, uHTS hits (AID 624382); format: functional; conditions: read-out: IC50_Mean
[28] = biological target: Prothrombin (Bos taurus, UniProt P00735); test: thrombin inhibition, dose response, biochemical, fluorescence polarization, uHTS hits (AID 602369); format: functional
[29] = system: Vero; test: cells; format: functional, cell-based; conditions: Chlorocebus sabaeus
[30] = biological target: 72 kDa type IV collagenase (Homo sapiens, UniProt P08253); test: Dose Response validation of uHTS RPN11 inhibitor hits using a MMP-2 Fluorescence assay.; format: functional
[31] = Cytotoxicity screening for potential Inhibitors of Bacterial Capsule Biogenesis. [Related pubchem assays (depositor defined):AID488970]; format: functional
[32] = biological target: 26S proteasome non-ATPase regulatory subunit 14 (Homo sapiens, UniProt O00487); test: inhibition of proteasome subunit RPN11 – biochemical, fluorescence polarization, uHTS hits, confirmation (AID 602368); format: functional
[33] = biological target: T7, Small ubiquitin-related modifier 1; test: inhibitors of SUMO1 partner interactions, dose response, biochemical, FRET (AID 624383); format: functional; conditions: read-out: IC50_Mean

T4 sequence (P49327 whole entry, the tested form may be a part): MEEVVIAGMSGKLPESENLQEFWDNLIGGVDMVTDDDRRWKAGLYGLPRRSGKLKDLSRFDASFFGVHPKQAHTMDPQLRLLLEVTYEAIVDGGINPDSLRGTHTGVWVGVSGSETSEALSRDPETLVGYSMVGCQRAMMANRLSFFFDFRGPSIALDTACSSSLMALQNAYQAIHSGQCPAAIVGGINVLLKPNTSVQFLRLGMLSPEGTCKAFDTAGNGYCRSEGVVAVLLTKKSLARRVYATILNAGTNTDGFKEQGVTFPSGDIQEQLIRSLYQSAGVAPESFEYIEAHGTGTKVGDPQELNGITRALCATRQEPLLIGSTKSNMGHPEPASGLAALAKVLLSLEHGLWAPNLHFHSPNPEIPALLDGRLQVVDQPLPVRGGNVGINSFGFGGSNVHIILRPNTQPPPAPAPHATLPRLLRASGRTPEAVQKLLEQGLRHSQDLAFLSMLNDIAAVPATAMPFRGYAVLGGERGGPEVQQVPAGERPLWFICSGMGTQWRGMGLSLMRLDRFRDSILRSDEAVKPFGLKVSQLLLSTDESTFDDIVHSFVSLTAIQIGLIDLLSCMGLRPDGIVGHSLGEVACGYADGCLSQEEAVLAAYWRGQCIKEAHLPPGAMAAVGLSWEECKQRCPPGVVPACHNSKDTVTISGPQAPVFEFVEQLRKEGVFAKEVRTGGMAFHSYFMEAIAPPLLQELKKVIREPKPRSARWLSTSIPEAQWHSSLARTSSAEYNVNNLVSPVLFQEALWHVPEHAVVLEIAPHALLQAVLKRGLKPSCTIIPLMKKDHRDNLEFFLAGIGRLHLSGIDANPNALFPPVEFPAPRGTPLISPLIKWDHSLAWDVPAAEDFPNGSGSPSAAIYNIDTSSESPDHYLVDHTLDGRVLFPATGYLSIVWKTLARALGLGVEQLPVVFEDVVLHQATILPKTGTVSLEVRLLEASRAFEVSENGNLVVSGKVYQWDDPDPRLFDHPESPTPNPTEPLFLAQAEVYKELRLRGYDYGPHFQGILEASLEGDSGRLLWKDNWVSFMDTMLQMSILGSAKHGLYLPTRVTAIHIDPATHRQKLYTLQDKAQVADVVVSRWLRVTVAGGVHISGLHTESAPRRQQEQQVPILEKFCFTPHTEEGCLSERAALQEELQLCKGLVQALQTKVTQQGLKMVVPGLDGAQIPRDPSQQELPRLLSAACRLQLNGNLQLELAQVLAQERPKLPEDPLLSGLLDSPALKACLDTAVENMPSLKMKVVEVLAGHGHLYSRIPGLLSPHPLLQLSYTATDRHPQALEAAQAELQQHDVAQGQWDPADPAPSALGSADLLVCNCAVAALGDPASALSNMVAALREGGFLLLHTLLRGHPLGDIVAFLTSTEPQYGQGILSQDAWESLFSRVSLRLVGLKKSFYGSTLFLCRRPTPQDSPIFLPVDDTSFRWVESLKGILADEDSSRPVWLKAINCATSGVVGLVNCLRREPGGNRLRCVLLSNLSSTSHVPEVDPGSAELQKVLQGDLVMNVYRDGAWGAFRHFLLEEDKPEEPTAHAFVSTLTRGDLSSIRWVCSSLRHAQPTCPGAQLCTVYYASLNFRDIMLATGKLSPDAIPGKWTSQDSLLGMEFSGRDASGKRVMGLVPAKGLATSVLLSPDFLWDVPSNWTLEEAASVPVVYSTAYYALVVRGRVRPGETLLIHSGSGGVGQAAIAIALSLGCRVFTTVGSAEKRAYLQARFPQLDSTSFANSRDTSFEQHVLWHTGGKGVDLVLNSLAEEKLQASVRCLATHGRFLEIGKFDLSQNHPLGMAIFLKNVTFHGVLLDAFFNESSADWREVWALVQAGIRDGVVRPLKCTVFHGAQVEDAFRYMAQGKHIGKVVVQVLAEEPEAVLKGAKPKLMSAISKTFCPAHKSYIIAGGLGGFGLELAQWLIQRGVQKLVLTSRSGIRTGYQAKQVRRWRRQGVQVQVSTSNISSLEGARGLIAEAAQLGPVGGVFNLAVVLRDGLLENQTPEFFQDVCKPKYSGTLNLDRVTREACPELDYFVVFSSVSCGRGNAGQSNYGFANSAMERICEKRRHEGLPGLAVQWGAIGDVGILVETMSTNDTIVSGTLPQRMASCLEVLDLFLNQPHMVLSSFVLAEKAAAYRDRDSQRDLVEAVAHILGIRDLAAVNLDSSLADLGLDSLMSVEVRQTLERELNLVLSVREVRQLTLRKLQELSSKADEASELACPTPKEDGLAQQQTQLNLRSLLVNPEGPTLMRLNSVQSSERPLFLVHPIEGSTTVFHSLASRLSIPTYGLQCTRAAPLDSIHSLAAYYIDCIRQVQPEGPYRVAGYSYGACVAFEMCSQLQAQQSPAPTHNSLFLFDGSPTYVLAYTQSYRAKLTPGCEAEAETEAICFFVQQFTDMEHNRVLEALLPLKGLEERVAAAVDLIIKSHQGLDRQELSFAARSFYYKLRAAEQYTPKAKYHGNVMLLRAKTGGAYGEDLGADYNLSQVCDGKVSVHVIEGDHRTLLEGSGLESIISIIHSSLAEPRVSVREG
T7 sequence (P63165 whole entry): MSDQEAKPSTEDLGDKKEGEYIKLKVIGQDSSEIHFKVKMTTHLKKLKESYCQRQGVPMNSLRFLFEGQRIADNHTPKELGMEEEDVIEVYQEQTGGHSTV
T3 sequence (O95180 whole entry): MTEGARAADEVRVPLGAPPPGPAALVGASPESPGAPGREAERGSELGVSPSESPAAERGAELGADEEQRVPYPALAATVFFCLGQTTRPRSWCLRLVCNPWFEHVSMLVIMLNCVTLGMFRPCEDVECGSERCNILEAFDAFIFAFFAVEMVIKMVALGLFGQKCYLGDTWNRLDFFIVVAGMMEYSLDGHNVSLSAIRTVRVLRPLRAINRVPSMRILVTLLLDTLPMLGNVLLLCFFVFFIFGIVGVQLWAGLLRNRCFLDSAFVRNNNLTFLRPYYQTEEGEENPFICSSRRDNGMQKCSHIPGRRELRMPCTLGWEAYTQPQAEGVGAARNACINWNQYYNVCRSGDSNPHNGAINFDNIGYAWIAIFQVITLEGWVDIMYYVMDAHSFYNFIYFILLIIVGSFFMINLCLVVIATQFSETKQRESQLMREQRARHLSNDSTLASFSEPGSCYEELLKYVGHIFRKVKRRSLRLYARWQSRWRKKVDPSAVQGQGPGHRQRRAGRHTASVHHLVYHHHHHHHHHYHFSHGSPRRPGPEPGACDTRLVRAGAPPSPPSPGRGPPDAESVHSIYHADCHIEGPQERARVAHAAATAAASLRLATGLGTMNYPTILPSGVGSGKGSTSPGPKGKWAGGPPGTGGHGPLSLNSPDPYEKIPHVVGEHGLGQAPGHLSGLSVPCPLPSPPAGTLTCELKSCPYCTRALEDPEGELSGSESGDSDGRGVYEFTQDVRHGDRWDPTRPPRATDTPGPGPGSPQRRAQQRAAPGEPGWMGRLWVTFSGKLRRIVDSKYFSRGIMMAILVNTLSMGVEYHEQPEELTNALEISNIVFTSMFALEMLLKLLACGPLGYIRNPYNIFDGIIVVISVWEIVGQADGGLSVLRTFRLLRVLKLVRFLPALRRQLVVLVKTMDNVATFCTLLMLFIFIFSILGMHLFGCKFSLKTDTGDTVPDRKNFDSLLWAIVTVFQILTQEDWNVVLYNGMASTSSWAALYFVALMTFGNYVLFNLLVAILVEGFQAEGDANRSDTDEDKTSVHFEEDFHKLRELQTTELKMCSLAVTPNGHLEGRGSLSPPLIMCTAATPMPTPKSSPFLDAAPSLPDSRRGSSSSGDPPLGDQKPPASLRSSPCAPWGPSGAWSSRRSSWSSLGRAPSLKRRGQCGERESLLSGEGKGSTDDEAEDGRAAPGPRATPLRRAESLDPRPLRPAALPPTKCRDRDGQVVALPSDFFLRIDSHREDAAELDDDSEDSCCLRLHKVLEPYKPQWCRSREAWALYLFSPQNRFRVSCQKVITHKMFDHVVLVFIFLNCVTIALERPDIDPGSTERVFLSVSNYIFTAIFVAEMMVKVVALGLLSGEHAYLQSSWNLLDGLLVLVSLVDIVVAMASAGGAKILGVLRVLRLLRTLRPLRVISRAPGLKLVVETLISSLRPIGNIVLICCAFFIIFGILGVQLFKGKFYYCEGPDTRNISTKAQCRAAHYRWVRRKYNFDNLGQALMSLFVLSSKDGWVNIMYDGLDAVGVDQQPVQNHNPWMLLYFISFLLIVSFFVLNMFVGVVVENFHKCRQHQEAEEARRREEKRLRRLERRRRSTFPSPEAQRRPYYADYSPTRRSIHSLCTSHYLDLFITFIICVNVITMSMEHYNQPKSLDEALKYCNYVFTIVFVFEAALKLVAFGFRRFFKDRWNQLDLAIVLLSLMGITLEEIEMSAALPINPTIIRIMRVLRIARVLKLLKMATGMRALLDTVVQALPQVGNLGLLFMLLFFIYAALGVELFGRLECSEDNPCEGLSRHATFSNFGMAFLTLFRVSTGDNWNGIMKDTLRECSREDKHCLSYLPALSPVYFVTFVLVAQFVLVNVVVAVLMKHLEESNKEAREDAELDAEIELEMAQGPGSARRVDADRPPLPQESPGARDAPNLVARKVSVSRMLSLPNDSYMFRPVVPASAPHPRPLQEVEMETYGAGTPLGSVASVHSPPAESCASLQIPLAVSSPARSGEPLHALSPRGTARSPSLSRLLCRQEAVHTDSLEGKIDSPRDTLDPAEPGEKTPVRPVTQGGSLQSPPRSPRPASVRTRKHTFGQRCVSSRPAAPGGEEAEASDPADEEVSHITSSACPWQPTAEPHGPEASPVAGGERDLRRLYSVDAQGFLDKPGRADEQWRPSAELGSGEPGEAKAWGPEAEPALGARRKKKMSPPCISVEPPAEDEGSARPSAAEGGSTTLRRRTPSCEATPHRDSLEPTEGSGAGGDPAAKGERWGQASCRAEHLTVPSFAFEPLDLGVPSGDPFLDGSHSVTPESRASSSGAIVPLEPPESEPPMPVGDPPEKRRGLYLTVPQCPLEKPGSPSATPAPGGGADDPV
Protein Rev, sequence (P04618 whole entry): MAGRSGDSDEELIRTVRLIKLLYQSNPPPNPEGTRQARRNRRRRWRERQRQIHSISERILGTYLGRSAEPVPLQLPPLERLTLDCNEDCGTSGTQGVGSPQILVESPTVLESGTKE

SMILES: Cc1ccc2cccc(S(=O)(=O)Nc3ccc4c(c3)OCO4)c2n1
- IC50 [1]: > 100 µM (inactive)

SMILES: COc1ccc(NC(=O)CCCOc2cc(=O)n(C)c3ccccc23)cc1Cl
- EC50 [2]: > 49.7 µM (inactive)
- EC50 [3]: > 49.7 µM (inactive)

SMILES: Cc1ccc(C)c(-n2nnnc2Sc2nnnn2-c2ccccc2)c1
- EC50 [4]: > 350 µM (not active)
- IC50 [5]: > 80 µM (inactive)
- EC50 [6]: 9.95 µM (active)
- EC50 [7]: 8.15 µM (active)
- EC50 [8]: > 350 µM (not active)
- IC50 [9]: 22.6 µM (inactive)

SMILES: CCN(CC)c1ccc2cc(-c3nnc(-c4ccccc4)o3)c(=O)oc2c1
- EC50 [10]: > 99 µM (inactive)
- EC50 [11]: 3.19 µM (active)
- EC50 [12]: > 99 µM (inactive)
- EC50 [13]: 0.931 µM (active)

SMILES: CC(OC(=O)/C(C#N)=C/c1ccc(N(C)C)cc1)C(=O)NCc1ccco1 (stereo not drawn)
- IC50 [14]: 6.63 µM (active)
- IC50 [15]: > 75.5 µM (not active)

SMILES: Cc1cc2c(nc3s/c(=C/c4ccccc4)c(=O)n32)c(Br)c1C
- Ki [16]: 28.5 µM (inactive)

SMILES: CC(N)C(=O)OC(C)(C)Cc1ccc(Cl)cc1 (stereo not drawn) [ALAPROCLATE HYDROCHLORIDE]
- IC50 [17]: 8.02 µM (active)

SMILES: CCCCCC1CC(CC(=O)Nc2ccc([N+](=O)[O-])cc2)C(=O)O1 (stereo not drawn)
- IC50 [18]: 12.5 µM (active)
- Absolute IC50 (XBP1) [19]: < 10 µM
- IC50 [20]: 16.8 µM (active)

SMILES: O=C1NC(=O)C(c2ccccc2[N+](=O)[O-])=C1Nc1ccc(O)c(Cl)c1
- AC50 [21]: 31.6 µM (inconclusive)
- AC50 [22]: 5.56 µM (active)
- AC50 [23]: 3.11 µM (active)
- AC50 [24]: 89.1 µM (active)
- IC50 [25]: 55.4 µM (active)
- AC50 [26]: 12.6 µM (inconclusive)

SMILES: Cc1ccccc1NC(=NCCCN1CC1)Nc1ccccc1C
- IC50 [27]: > 66.6 µM (inactive)
- IC50 [28]: 30 µM (active)
- IC50 [29]: 20.3 µM (active)
- IC50 [30]: > 100 µM (inactive)
- CC50 [31]: 7.68 µM (active)
- IC50 [32]: 12.5 µM (active)
- IC50 [33]: 2.8 µM (active)
